Assays:
Type in all cases: biochemical
Human MMP8 = biological target: T1, Human MMP8 (Homo sapiens, UniProt P22894); assay: MMP8 inhibition experiment; settings: concentration required for 50% inhibition of enzyme activity; read-out: IC50 value MMP-8
T1 construct: purchased Calbiochem 444229
How it was run: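 Human MMP8 activated with APMA for 1 h at 37° C, then incubated with fluorogenic peptide MOCAc-Pro-Leu-Gly-Leu-A2pr(Dnp)-Ala-Arg-NH2 (20 μM stock) for 5 hours at 37° C. Fluorescent substrate cleavage serves as read-out.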

Human MMP1 = biological target: T2, Human MMP1 (Homo sapiens, UniProt P03956); assay: MMP1 inhibition experiment; settings: read-out: IC50 value MMP-1
T2 construct: purchased Calbiochem 444208
T2 sequence (P03956 100-469): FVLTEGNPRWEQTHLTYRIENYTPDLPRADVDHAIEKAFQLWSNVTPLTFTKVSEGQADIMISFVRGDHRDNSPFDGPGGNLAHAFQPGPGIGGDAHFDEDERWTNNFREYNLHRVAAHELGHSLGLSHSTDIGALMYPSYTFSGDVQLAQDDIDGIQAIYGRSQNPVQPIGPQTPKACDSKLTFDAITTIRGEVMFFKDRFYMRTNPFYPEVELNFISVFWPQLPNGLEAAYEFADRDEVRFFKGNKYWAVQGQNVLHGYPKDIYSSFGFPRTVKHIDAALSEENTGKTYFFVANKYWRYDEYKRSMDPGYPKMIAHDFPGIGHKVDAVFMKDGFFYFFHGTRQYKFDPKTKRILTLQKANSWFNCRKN

Human MMP2 = biological target: T3, Human MMP2 (Homo sapiens, UniProt P08253); assay: MMP2 inhibition experiment; settings: concentration required for 50% inhibition of enzyme activity; read-out: IC50 value MMP-2
T3 construct: purchased Calbiochem 444213
T3 sequence (P08253 110-660): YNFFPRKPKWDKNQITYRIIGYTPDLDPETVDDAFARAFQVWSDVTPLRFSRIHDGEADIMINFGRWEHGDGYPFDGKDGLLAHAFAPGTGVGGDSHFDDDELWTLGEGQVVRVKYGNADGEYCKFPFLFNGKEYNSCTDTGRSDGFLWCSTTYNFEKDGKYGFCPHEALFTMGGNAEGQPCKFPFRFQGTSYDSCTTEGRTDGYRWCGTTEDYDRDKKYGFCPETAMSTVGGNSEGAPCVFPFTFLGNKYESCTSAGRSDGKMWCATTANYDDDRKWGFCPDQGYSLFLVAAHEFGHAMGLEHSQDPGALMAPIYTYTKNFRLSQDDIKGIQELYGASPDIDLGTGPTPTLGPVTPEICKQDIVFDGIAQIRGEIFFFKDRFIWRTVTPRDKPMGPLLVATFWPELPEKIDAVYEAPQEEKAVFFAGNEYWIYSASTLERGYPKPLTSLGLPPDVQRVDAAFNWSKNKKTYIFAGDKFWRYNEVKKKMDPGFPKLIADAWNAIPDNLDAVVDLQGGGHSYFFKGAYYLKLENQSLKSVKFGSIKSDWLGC

TACE = biological target: T4, TACE (Homo sapiens, UniProt P78536); assay: TACE inhibition experiment (in vitro)
T4 construct: made in house; host or cells: mammalian cells or insect cells

Human MMP3 = biological target: T5, Human MMP3 (Homo sapiens, UniProt P08254); assay: MMP3 inhibition experiment; settings: concentration required for 50% inhibition of enzyme activity; read-out: IC50 value MMP-3
T5 construct: purchased Calbiochem 444217
How it was run: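 Fluorescence-quenched substrate NFF-3 (MOCAc/Dnp peptide, 20 μM as prepared) cleaved by 5 ng human MMP3 over 5 hours at 37° C, with inhibition measured from substrate fluorescence.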

Human MMP9 = biological target: T6, Human MMP9 (Homo sapiens, UniProt P14780); assay: MMP9 inhibition experiment; settings: read-out: IC50 value MMP-9
T6 construct: purchased Calbiochem 444231

Human MMP14 = biological target: T7, Human MMP14 (Homo sapiens, UniProt P50281); assay: MMP14 inhibition experiment; settings: concentration required for 50% inhibition of enzyme activity; read-out: IC50 value MMP-14
T7 construct: purchased Biogenesis or Calbiochem 5980-1461 or 475935
How it was run: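 Fluorescence assay: substrate Dnp-Pro-Cha-Gly-Cys(Me)-His-Ala-Lys(Nma)-NH2 (20 μM before equal-volume mixing) incubated at 37° C for 5 hours with 4 ng human MMP14.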

Human MMP13 = biological target: T8, Human MMP13 (Homo sapiens, UniProt P45452); assay: MMP13 inhibition experiment; settings: concentration required for 50% inhibition of enzyme activity; read-out: IC50 value MMP-13
T8 construct: purchased Chemicon CC068

Human MMP17 = biological target: T9, Human MMP17 (Homo sapiens, UniProt Q9ULZ9); assay: MMP17 inhibition test; settings: concentration required for 50% inhibition of enzyme activity; read-out: IC50 value MMP-17
T9 construct: purchased Calbiochem 475940
T9 sequence (Q9ULZ9 126-300 limits assumed): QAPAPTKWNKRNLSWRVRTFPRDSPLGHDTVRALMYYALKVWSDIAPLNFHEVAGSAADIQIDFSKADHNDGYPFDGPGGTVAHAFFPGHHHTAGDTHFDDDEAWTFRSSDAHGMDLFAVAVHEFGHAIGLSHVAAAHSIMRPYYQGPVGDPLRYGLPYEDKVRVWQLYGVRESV

T6 sequence (P14780 107-707 limits assumed): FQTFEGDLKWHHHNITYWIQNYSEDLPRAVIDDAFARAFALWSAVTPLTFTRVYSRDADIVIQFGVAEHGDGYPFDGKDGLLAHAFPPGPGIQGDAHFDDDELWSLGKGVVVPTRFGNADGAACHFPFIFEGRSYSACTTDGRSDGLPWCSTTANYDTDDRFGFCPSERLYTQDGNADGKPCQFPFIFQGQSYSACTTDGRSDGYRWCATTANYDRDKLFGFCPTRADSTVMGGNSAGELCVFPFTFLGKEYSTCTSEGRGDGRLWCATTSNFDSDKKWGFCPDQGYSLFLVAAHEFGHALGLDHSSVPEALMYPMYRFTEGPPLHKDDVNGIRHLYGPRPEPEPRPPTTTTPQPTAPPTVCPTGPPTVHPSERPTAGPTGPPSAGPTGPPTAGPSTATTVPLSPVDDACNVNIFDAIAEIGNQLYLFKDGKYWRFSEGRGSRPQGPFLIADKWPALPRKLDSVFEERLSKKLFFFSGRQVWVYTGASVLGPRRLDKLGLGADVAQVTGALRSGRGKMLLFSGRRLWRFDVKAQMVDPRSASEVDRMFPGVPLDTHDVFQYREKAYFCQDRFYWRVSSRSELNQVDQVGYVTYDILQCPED
T5 sequence (P08254 100-272 limits assumed): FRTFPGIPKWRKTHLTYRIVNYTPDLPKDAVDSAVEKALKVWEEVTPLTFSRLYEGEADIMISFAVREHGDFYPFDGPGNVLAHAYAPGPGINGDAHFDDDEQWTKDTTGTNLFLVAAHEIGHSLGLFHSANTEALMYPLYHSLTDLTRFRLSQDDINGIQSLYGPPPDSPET
T1 sequence (P22894 101-467): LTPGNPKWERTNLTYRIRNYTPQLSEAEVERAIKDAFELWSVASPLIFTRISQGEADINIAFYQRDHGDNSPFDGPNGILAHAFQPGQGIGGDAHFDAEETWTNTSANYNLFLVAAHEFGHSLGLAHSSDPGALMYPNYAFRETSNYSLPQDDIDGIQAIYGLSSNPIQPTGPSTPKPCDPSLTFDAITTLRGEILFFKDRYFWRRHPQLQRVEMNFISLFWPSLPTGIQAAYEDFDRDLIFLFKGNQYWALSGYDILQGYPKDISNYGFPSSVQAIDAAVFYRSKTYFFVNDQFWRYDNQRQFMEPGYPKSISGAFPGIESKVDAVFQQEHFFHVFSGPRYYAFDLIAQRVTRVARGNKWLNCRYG
T4 sequence (P78536 215-824): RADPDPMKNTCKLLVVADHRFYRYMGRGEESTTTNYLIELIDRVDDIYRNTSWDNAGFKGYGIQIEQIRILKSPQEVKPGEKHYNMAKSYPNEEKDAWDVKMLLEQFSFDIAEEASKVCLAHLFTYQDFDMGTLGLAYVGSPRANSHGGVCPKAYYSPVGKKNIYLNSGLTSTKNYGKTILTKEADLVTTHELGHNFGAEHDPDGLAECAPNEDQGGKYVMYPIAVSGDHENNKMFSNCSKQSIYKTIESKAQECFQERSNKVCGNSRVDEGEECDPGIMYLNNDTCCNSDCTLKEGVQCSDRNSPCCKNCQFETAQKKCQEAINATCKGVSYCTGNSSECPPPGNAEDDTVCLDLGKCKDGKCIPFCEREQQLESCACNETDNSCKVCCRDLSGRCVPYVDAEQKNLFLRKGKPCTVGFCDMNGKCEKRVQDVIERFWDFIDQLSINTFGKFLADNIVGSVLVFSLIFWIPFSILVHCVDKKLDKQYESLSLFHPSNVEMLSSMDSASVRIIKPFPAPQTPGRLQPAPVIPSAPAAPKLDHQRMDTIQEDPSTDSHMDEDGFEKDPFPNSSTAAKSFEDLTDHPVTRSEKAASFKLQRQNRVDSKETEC

IC50 (Human MMP8) [µM] | IC50 (Human MMP1) [µM] | IC50 (Human MMP2) [µM] | IC50 (TACE) [µM] | IC50 (Human MMP3) [µM] | IC50 (Human MMP9) [µM] | IC50 (Human MMP14) [µM] | IC50 (Human MMP13) [µM] | IC50 (Human MMP17) [µM] | SMILES
10 | > 100 | 60 | 0.0083 | 2.5 | > 100 | > 100 | 56 | 0.51 | Cc1cc(COc2ccc(S(=O)(=O)CC(N(O)C=O)C3(C)CCOCC3)cc2)c2ccccc2n1 (stereo not drawn) [Example I-60, N-hydroxy-N-{2-[4-(2-methylquinolin-4-ylmethoxy)benzenesulfonyl]-1-(4-methyltetrahydropyran-4-yl)ethyl}formamide]
24 | 80 | 5 | 0.0033 | 1.5 | 62 | 54 | 10 | 1.8 | Cc1cc(COc2ccc(S(=O)(=O)CC(C=C3CCN(C(=O)OC(C)(C)C)CC3C)N(O)C=O)cc2)c2ccccc2n1 (stereo not drawn) [Example I-61]
60 | 64 | 30 | 0.002 | 2.4 | 75 | 65 | 32 | 2.2 | CCC(CC)C(=O)N1CCC(=CC(CS(=O)(=O)c2ccc(OCc3cc(C)nc4ccccc34)cc2)N(O)C=O)C(C)C1 (stereo not drawn) [Example I-63]
17 | 57 | 9 | 0.0051 | 0.7 | 58 | 65 | 17 | 0.58 | CCC(CC)C(=O)N1CCC(CC(CS(=O)(=O)c2ccc(OCc3cc(C)nc4ccccc34)cc2)N(O)C=O)C(C)C1 (stereo not drawn) [Example I-64]
18 | > 100 | 20 | 0.003 | 2.7 | > 100 | 70 | 30 | 1.4 | Cc1cc(COc2ccc(S(=O)(=O)CC(c3cccnc3C)N(O)C=O)cc2)c2ccccc2n1 (stereo not drawn) [Example I-67]
8 | 80 | 1.5 | 0.023 | 0.5 | 50 | 40 | 0.53 | 0.22 | Cc1cc(COc2ccc(S(=O)(=O)CC(C3CCN(C(=O)OC(C)(C)C)CC3)N(O)C=O)cc2)c2ccccc2n1 (stereo not drawn) [Example I-68]
9.8 | > 100 | 9 | 0.0053 | 0.63 | > 100 | > 100 | 13 | 0.45 | CC(=O)N1CCC(CC(CS(=O)(=O)c2ccc(OCc3cc(C)nc4ccccc34)cc2)N(O)C=O)CC1 (stereo not drawn) [Example I-69]
22 | > 100 | 11 | 0.011 | 1.3 | > 100 | 92 | 30 | 1.9 | Cc1cc(COc2ccc(S(=O)(=O)CC(CC3CCN(S(C)(=O)=O)CC3)N(O)C=O)cc2)c2ccccc2n1 (stereo not drawn) [Example I-70]
10 | > 100 | 0.78 | 0.02 | 0.4 | 38 | 70 | 1.4 | 0.06 | CCC(CC)CN1CCC(CC(CS(=O)(=O)c2ccc(OCc3cc(C)nc4ccccc34)cc2)N(O)C=O)CC1 (stereo not drawn) [Example I-71]
10 | 90 | 2 | 0.024 | 0.7 | 64 | 48 | 1.4 | 0.28 | Cc1cc(COc2ccc(S(=O)(=O)CC(C3CCCN(C(=O)OC(C)(C)C)C3)N(O)C=O)cc2)c2ccccc2n1 (stereo not drawn) [Example I-72]
18 | > 100 | 26 | 0.014 | 1.7 | > 100 | > 100 | 50 | 0.66 | CC(=O)N1CCC(C(CS(=O)(=O)c2ccc(OCc3cc(C)nc4ccccc34)cc2)N(O)C=O)CC1 (stereo not drawn) [Example I-73]

— patent US7511144B2, “Reverse hydroxamic acid derivatives” (Kaken Pharmaceutical Co., Ltd., priority 2001, dated 2009)
